According to ChEMBL document CHEMBL3102731, “Structure-activity relationship studies and biological characterization of human NAD(+)-dependent 15-hydroxyprostaglandin dehydrogenase inhibitors” (Bioorg Med Chem Lett, 2014):
Blank lines part the entries; values can stand above or below the compound they belong to.

How the values were obtained:
A549 [1] = test: Induction of PGE2 production in human A549 cells assessed as concentration required for half-maximal activation after 4 to 20 hrs by HTRF assay; format: functional, cell-based
LNCaP [2] = test: Induction of PGE2 production in human LNCAP cells at 41.9 nM to 100 uM after 16 hrs by HTRF assay relative to control; format: functional
[3] = Passive permeability of the compound at pH 7.4 by PAMPA; format: ADME
Liver microsome = test: Half life in rat liver microsomes in presence of NADPH; format: ADME
[4] = biological target: T1, 15-hydroxyprostaglandin dehydrogenase [NAD(+)] (Homo sapiens, UniProt P15428); test: Inhibition of human HPGD using PGE2 as substrate after 15 mins by fluorescence assay
T1 sequence (P15428 whole entry): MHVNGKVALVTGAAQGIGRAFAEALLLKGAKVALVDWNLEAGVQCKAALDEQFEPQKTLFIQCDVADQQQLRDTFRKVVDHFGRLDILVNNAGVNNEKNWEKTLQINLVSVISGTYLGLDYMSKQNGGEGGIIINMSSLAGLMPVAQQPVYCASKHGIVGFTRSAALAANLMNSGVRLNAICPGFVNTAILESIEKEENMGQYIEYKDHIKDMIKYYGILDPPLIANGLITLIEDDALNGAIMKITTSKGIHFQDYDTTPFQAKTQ

[5] = Kinetic solubility of the compound in PBS buffer at pH 7.4; format: physicochemical
A549 [6] = test: Induction of PGE2 production in human A549 cells at 775 pM to 45.8 uM after 4 to 20 hrs by HTRF assay relative to control; format: functional
LNCaP [7] = test: Induction of PGE2 production in human LNCAP cells assessed as half-maximal activation concentration after 16 hrs by HTRF assay; format: functional, cell-based
[8] = biological target: Glyceraldehyde-3-phosphate dehydrogenase (Oryctolagus cuniculus, UniProt P46406); test: Inhibition of rabbit muscle GAPDH using glyceraldehyde-3-phosphate as substrate at 324 pM to 57.2 uM by fluorescence assay
[9] = biological target: T2, Aldehyde dehydrogenase 1A1 (Homo sapiens, UniProt P00352); test: Inhibition of ALDH1A1 (unknown origin) using NAD+/propionaldehyde as substrate after 15 mins by UV-fluorescence assay
T2 sequence (P00352 whole entry): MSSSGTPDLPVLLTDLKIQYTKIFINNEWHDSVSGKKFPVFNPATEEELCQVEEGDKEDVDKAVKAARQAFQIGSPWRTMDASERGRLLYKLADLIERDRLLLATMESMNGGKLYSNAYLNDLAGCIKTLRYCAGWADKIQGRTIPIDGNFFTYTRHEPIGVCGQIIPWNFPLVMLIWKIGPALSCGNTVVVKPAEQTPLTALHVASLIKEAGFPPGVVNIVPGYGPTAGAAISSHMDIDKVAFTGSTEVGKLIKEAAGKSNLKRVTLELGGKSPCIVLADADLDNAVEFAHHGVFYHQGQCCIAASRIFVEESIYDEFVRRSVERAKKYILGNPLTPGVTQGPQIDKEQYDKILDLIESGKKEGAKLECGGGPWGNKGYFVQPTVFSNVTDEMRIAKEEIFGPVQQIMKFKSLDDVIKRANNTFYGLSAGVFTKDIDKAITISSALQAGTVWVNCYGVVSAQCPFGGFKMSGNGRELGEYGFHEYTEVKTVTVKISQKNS

[10] = biological target: T3, Peroxisomal multifunctional enzyme type 2 (Homo sapiens, UniProt P51659); test: Inhibition of HSD17beta4 (unknown origin) using NAD+/estradiol as substrate at 324 pM to 57.2 uM after 15 mins by UV-fluorescence assay
T3 sequence (P51659 whole entry): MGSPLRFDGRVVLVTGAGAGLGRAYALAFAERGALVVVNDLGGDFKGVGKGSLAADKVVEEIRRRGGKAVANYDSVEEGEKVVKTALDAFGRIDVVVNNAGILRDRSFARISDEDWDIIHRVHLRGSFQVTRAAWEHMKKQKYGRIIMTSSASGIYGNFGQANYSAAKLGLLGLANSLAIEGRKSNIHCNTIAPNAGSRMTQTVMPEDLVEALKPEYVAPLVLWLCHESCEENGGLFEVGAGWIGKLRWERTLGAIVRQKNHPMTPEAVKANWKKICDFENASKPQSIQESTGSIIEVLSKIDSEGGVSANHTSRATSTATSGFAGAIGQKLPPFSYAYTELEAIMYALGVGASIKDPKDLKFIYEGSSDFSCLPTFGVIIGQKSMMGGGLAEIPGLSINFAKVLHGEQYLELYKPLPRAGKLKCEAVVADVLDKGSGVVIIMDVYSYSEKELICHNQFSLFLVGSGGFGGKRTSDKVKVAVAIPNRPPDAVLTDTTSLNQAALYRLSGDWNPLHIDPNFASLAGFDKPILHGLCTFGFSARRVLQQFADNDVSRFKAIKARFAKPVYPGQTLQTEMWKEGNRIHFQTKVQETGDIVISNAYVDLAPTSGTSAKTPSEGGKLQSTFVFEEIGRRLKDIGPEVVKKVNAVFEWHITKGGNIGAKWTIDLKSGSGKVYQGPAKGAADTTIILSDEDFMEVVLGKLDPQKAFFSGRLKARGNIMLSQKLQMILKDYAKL

[11] = biological target: L-lactate dehydrogenase A chain (Homo sapiens, UniProt P00338); test: Inhibition of LDHA (unknown origin) using sodium pyruvate as substrate at 0.46 to 57.5 uM after 15 mins by fluorescence assay
[12] = biological target: L-lactate dehydrogenase B chain (Homo sapiens, UniProt P07195); test: Inhibition of LDHB (unknown origin) using sodium pyruvate as substrate at 0.46 to 57.5 uM after 15 mins by fluorescence assay
Chain of L-lactate dehydrogenase B chain (P07195 whole entry): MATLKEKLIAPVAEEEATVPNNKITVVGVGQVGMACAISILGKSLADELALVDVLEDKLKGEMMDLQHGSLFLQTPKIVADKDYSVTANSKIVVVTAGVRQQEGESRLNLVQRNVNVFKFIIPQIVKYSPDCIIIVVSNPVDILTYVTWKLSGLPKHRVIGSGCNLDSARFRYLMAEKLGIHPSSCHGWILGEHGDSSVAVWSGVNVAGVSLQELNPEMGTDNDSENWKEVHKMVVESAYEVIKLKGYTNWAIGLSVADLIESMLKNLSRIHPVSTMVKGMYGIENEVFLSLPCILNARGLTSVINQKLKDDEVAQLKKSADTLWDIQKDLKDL

Chain of Glyceraldehyde-3-phosphate dehydrogenase (P46406 whole entry): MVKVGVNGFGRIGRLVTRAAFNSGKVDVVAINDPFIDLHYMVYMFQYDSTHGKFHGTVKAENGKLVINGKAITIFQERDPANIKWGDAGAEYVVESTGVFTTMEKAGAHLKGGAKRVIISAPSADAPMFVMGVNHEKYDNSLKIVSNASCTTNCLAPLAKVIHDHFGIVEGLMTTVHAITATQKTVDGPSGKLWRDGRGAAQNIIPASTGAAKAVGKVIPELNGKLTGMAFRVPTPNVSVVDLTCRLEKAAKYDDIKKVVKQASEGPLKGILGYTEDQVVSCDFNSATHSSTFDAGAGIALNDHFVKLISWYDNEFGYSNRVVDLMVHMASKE

SMILES: Cc1cccc(-n2cnc3cc(C(=O)N4CCCCC4)ccc32)c1
AC50 (A549 [1]): 469 nM
Activity (LNCaP [2]): 62%
permeability [3]: 1200 ×10⁻⁶ cm/s
t1/2 (Liver microsome): 7.3 min
IC50 [4]: 19 nM
Kinetic_solubility [5]: > 47 µM
Activity (A549 [6]): 129%
AC50 (LNCaP [7]): 884 nM

permeability [3]: 599 ×10⁻⁶ cm/s
IC50 [4]: 54 nM
Kinetic_solubility [5]: > 45 µM
SMILES: Cc1cc(-c2nnc3n2CCCCC3)c(C)n1-c1ccccc1
Activity (LNCaP [2]): 73%
Activity (A549 [6]): 106%

IC50 [4]: 121 nM
SMILES: Cc1cc(-c2nnc3n2CCCCC3)c(C)n1-c1ccc(F)cc1

IC50 [4]: 27 nM
SMILES: COc1ccccc1-n1cnc2cc(C(=O)N3CCCCC3)ccc21

IC50 [4]: 38 nM
SMILES: Cc1cc(-c2nnc3n2CCCCC3)c(C)n1-c1ccc(Cl)cc1

IC50 [4]: 48 nM
SMILES: Cc1cc(-c2nnc3n2CCCCC3)c(C)n1-c1ccc(Br)cc1

IC50 [4]: 68 nM
SMILES: Cc1cc(-c2nnc3n2CCCCC3)c(C)n1-c1ccc(C(F)(F)F)cc1

permeability [3]: 229 ×10⁻⁶ cm/s
IC50 [8]: Not Active
t1/2 (Liver microsome): 8.1 min
IC50 [9]: 6810 nM
IC50 [10]: Not Active
IC50 [4]: 76 nM
IC50 [11]: Not Active
Kinetic_solubility [5]: > 49 µM
IC50 [12]: Not Active
SMILES: Cc1cc(-c2nnc3n2CCCCC3)c(C)n1-c1cccc(C#N)c1
AC50 (A549 [1]): 2640 nM
Activity (LNCaP [2]): 63%
Activity (A549 [6]): 350%
AC50 (LNCaP [7]): 1770 nM

IC50 [4]: 96 nM
SMILES: Cc1cc(-c2nnc3n2CCCCC3)c(C)n1-c1ccc(C#N)cc1

IC50 [4]: 86 nM
SMILES: COc1ccc(-n2c(C)cc(-c3nnc4n3CCCCC4)c2C)cc1

IC50 [4]: 108 nM
SMILES: Cc1cc(-c2nnc3n2CCCCC3)c(C)n1-c1ccc([N+](=O)[O-])cc1

IC50 [4]: 136 nM
SMILES: Cc1cc(-c2nnc3n2CCCCC3)c(C)n1-c1ccc(C(C)(C)C)cc1

IC50 [4]: 38 nM
SMILES: CCOC(=O)c1ccc(-n2c(C)cc(-c3nnc4n3CCCCC4)c2C)cc1

IC50 [4]: 1080 nM
SMILES: Cc1cc(-c2nnc3n2CCCCC3)c(C)n1-c1ccccn1

IC50 [4]: 271 nM
SMILES: Cc1cc(-c2nnc3n2CCCCC3)c(C)n1-c1cccnc1

IC50 [4]: 383 nM
SMILES: Cc1cc(-c2nnc3n2CCCCC3)c(C)n1-c1ccncc1

IC50 [4]: 108 nM
SMILES: Cc1cc(-c2nnc3n2CCCCC3)c(C)n1-c1cccc2ccccc12

IC50 [4]: 3040 nM
SMILES: Cc1cc(-c2nnc3n2CCC3)c(C)n1-c1ccccc1

IC50 [4]: 192 nM
SMILES: Cc1cc(-c2nnc3n2CCCC3)c(C)n1-c1ccccc1

IC50 [4]: 242 nM
SMILES: Cc1cc(-c2nnc3n2CCCCCC3)c(C)n1-c1ccccc1

IC50 [4]: 383 nM
SMILES: Cc1cc(-c2nnc3n2CCCCCCC3)c(C)n1-c1ccccc1

IC50 [4]: 607 nM
SMILES: c1ccc(-n2ccc(-c3nnc4n3CCCCC4)c2)cc1

IC50 [4]: 3830 nM
SMILES: c1ccc(-n2ccc(-c3nnc4n3CCCCC4)n2)cc1

IC50 [4]: 681 nM
SMILES: c1ccc(-n2cc(-c3nnc4n3CCCCC4)c3ccccc32)cc1

IC50 [4]: 22 nM
SMILES: Cc1cccc(-n2cnc3cc(C(=O)N4CCCC(C)C4)ccc32)c1 (centres undefined)

IC50 [4]: 271 nM
SMILES: Cc1cccc(-n2cnc3cc(C(=O)N4CC(C)CC(C)C4)ccc32)c1 (centres undefined)

IC50 [4]: 48 nM
SMILES: Cc1cccc(-n2cnc3cc(C(=O)N4CCCC(C(C)C)C4)ccc32)c1 (centres undefined)

permeability [3]: 2260 ×10⁻⁶ cm/s
IC50 [8]: Not Active
t1/2 (Liver microsome): 1.8 min
IC50 [9]: 1920 nM
IC50 [10]: Not Active
IC50 [4]: 68 nM
IC50 [11]: Not Active
Kinetic_solubility [5]: 5.6 µM
IC50 [12]: Not Active
SMILES: Cc1cccc(-n2cnc3cc(C(=O)N4CCCC(C)(C)C4)ccc32)c1
AC50 (A549 [1]): 743 nM
Activity (LNCaP [2]): 53%
Activity (A549 [6]): 127%
AC50 (LNCaP [7]): 4430 nM

IC50 [4]: 68 nM
SMILES: Cc1cccc(-n2cnc3cc(C(=O)N4CCCC(C(F)(F)F)C4)ccc32)c1 (centres undefined)

IC50 [4]: 1520 nM
SMILES: Cc1cccc(-n2cnc3cc(C(=O)N4CCC(C(F)(F)F)CC4)ccc32)c1

IC50 [4]: 383 nM
SMILES: Cc1cccc(-n2cnc3cc(C(=O)N4CCCC4)ccc32)c1

IC50 [4]: 429 nM
SMILES: Cc1cccc(-n2cnc3cc(C(=O)N4CCCC(c5ccccc5)C4)ccc32)c1 (centres undefined)

IC50 [4]: 961 nM
SMILES: Cc1cccc(-n2cnc3cc(C(=O)NC4CCCC4)ccc32)c1

IC50 [4]: 1360 nM
SMILES: CCCCNC(=O)c1ccc2c(c1)ncn2-c1cccc(C)c1

IC50 [4]: 2710 nM
SMILES: Cc1cccc(-n2cnc3cc(C(=O)N4CCN(C)CC4)ccc32)c1

IC50 [4]: 3040 nM
SMILES: Cc1cccc(-n2cnc3cc(C(=O)N4CCOCC4)ccc32)c1

IC50 [4]: 22 nM
SMILES: O=C(c1ccc2c(c1)ncn2-c1ccccc1)N1CCCCC1

permeability [3]: 895 ×10⁻⁶ cm/s
IC50 [8]: Not Active
t1/2 (Liver microsome): 6.4 min
IC50 [9]: 1920 nM
IC50 [10]: Not Active
IC50 [4]: 12 nM
IC50 [11]: Not Active
Kinetic_solubility [5]: > 50 µM
IC50 [12]: Not Active
SMILES: O=C(c1ccc2c(c1)ncn2-c1cccc(Cl)c1)N1CCCCC1
Activity (LNCaP [2]): 85%
Activity (A549 [6]): 170%
AC50 (LNCaP [7]): 222 nM

IC50 [4]: 19 nM
SMILES: COc1cccc(-n2cnc3cc(C(=O)N4CCCCC4)ccc32)c1

permeability [3]: 1350 ×10⁻⁶ cm/s
IC50 [8]: Not Active
t1/2 (Liver microsome): 4.4 min
IC50 [9]: 6810 nM
IC50 [10]: Not Active
IC50 [4]: 48 nM
IC50 [11]: Not Active
Kinetic_solubility [5]: > 55 µM
IC50 [12]: Not Active
SMILES: O=C(c1ccc2c(c1)ncn2-c1cccc(C(F)(F)F)c1)N1CCCCC1
AC50 (A549 [1]): 2640 nM
Activity (LNCaP [2]): 70%
Activity (A549 [6]): 173%
AC50 (LNCaP [7]): 2800 nM

IC50 [4]: 68 nM
SMILES: CC(C)c1cccc(-n2cnc3cc(C(=O)N4CCCCC4)ccc32)c1

IC50 [4]: 171 nM
SMILES: CC(C)(C)c1cccc(-n2cnc3cc(C(=O)N4CCCCC4)ccc32)c1

IC50 [4]: 19 nM
SMILES: Cc1ccc(-n2cnc3cc(C(=O)N4CCCCC4)ccc32)cc1

IC50 [4]: 22 nM
SMILES: O=C(c1ccc2c(c1)ncn2-c1ccc(Cl)cc1)N1CCCCC1

permeability [3]: 624 ×10⁻⁶ cm/s
IC50 [8]: Not Active
t1/2 (Liver microsome): 23 min
IC50 [9]: 1360 nM
IC50 [10]: Not Active
IC50 [4]: 19 nM
IC50 [11]: Not Active
Kinetic_solubility [5]: > 50 µM
IC50 [12]: Not Active
SMILES: COc1ccc(-n2cnc3cc(C(=O)N4CCCCC4)ccc32)cc1
AC50 (A549 [1]): 662 nM
Activity (LNCaP [2]): 69%
Activity (A549 [6]): 174%
AC50 (LNCaP [7]): 884 nM

IC50 [4]: 86 nM
SMILES: O=C(c1ccc2c(c1)ncn2-c1ccc(C(F)(F)F)cc1)N1CCCCC1

IC50 [4]: 54 nM
SMILES: CC(C)(C)c1ccc(-n2cnc3cc(C(=O)N4CCCCC4)ccc32)cc1

IC50 [4]: 34 nM
SMILES: CC(C)(C)n1cnc2cc(C(=O)N3CCCCC3)ccc21

IC50 [4]: 68 nM
SMILES: CCCCn1cnc2cc(C(=O)N3CCCCC3)ccc21
